Data published in PubChem BioAssay AID2060617 (Molecular Pharmacology Branch, DTP, NCI, 2025).

Test system: 485368-065-R4-J2-PDC spheroids with HUVEC/MSC, viability
Test: Anticancer human tumor 485368-065-R4-J2-PDC patient-derived pancreatic carcinoma cell line growth inhibition [CLK]
Details: for IC50: curve of first compound; for viability, T/C: stronger effect = lower value
Summary of the method: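 Patient-derived tumor cells grown as complex spheroids with HUVEC endothelial cells and mesenchymal stem cells, treated with drug combinations. Concentrations descend in half-log steps from near clinical Cmax, or from 10 microM if Cmax unknown.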
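Also: spheroids exposed to compounds for seven days.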
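For viability, T/C in this document: 100% = DMSO vehicle control wells.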

Q: With `NC(=O)C(=Cn1cnc(-c2cc(C(F)(F)F)cc(C(F)(F)F)c2)n1)c1cncnc1` + CN1CCN(c2cc(C(=O)Nc3cc4cc(-c5cnn(C)c5)ccc4cn3)ccn2)CC1 as the molecule, how does the IC50 (second compound 0.0316 µM) read?
A: > 3000 nM

Q: What about the IC50 (second compound 0.1 µM) of the same molecule?
A: 2910 nM

Q: What about the IC50 (second compound 0.316 µM) of the same molecule?
A: 48.1 nM

Q: What about the IC50 (second compound 1 µM) of the same molecule?
A: < 9.49 nM

Q: What about the IC50 (second compound 3.16 µM) of the same molecule?
A: < 9.49 nM

Q: And the IC50 (second compound 10 µM)?
A: < 9.49 nM

Q: And the viability, T/C (second compound 0.0316 µM, first compound 0.00949 µM)?
A: 100%

Q: And the viability, T/C (second compound 0.0316 µM, first compound 0.03 µM)?
A: 127%

Q: And the viability, T/C (second compound 0.0316 µM, first compound 0.0949 µM)?
A: 173%

Q: What about the viability, T/C (second compound 0.0316 µM, first compound 0.3 µM) of the same molecule?
A: 170%

Q: And the viability, T/C (second compound 0.0316 µM, first compound 0.949 µM)?
A: 142%

Q: And the viability, T/C (second compound 0.0316 µM, first compound 3 µM)?
A: 71.4%

Q: What about the viability, T/C (second compound 0.1 µM, first compound 0.00949 µM) of the same molecule?
A: 109%

Q: What about the viability, T/C (second compound 0.1 µM, first compound 0.03 µM) of the same molecule?
A: 125%

Q: What about the viability, T/C (second compound 0.1 µM, first compound 0.0949 µM) of the same molecule?
A: 155%

Q: And the viability, T/C (second compound 0.1 µM, first compound 0.3 µM)?
A: 129%

Q: And the viability, T/C (second compound 0.1 µM, first compound 0.949 µM)?
A: 79.5%

Q: What about the viability, T/C (second compound 0.1 µM, first compound 3 µM) of the same molecule?
A: 49.2%

Q: What about the viability, T/C (second compound 0.316 µM, first compound 0.00949 µM) of the same molecule?
A: 71.2%

Q: And the viability, T/C (second compound 0.316 µM, first compound 0.03 µM)?
A: 65.3%

Q: And the viability, T/C (second compound 0.316 µM, first compound 0.0949 µM)?
A: 28.8%

Q: What about the viability, T/C (second compound 0.316 µM, first compound 0.3 µM) of the same molecule?
A: 11.8%

Q: And the viability, T/C (second compound 0.316 µM, first compound 0.949 µM)?
A: 4.77%

Q: And the viability, T/C (second compound 0.316 µM, first compound 3 µM)?
A: 3.83%

Q: What about the viability, T/C (second compound 1 µM, first compound 0.00949 µM) of the same molecule?
A: 0.93%

Q: And the viability, T/C (second compound 1 µM, first compound 0.03 µM)?
A: 1.37%

Q: And the viability, T/C (second compound 1 µM, first compound 0.0949 µM)?
A: 3.35%

Q: What about the viability, T/C (second compound 1 µM, first compound 0.3 µM) of the same molecule?
A: 7.19%

Q: And the viability, T/C (second compound 1 µM, first compound 0.949 µM)?
A: 6.52%

Q: And the viability, T/C (second compound 1 µM, first compound 3 µM)?
A: 6.06%

Q: And the viability, T/C (second compound 3.16 µM, first compound 0.00949 µM)?
A: 1.64%

Q: What about the viability, T/C (second compound 3.16 µM, first compound 0.03 µM) of the same molecule?
A: 3.12%

Q: What about the viability, T/C (second compound 3.16 µM, first compound 0.0949 µM) of the same molecule?
A: 5.78%

Q: And the viability, T/C (second compound 3.16 µM, first compound 0.3 µM)?
A: 7.76%

Q: What about the viability, T/C (second compound 3.16 µM, first compound 0.949 µM) of the same molecule?
A: 10.5%

Q: And the viability, T/C (second compound 3.16 µM, first compound 3 µM)?
A: 8.08%

Q: What about the viability, T/C (second compound 10 µM, first compound 0.00949 µM) of the same molecule?
A: 1.73%

Q: And the viability, T/C (second compound 10 µM, first compound 0.03 µM)?
A: 4.63%

Q: What about the viability, T/C (second compound 10 µM, first compound 0.0949 µM) of the same molecule?
A: 4.7%

Q: What about the viability, T/C (second compound 10 µM, first compound 0.3 µM) of the same molecule?
A: 7.24%

Q: And the viability, T/C (second compound 10 µM, first compound 0.949 µM)?
A: 9.55%

Q: What about the viability, T/C (second compound 10 µM, first compound 3 µM) of the same molecule?
A: 6.71%

Q: How did the IC50 (second compound 0.0316 µM) turn out when `CCN1CCN(Cc2ccc(Nc3ncc(F)c(-c4cc(F)c5nc(C)n(C(C)C)c5c4)n3)nc2)CC1` + CNC(=O)c1ccc(Nc2nc(OC3CCCC3)c3c(-c4ccc5nc(C)oc5c4)c[nH]c3n2)c(OC)c1 was run?
A: > 1000 nM

Q: What about the IC50 (second compound 0.1 µM) of the same molecule?
A: > 1000 nM

Q: And the IC50 (second compound 0.316 µM)?
A: > 1000 nM

Q: And the IC50 (second compound 1 µM)?
A: > 1000 nM

Q: And the IC50 (second compound 3.16 µM)?
A: > 1000 nM

Q: What about the IC50 (second compound 10 µM) of the same molecule?
A: > 1000 nM

Q: What about the viability, T/C (second compound 0.0316 µM, first compound 0.00316 µM) of the same molecule?
A: 95.9%

Q: What about the viability, T/C (second compound 0.0316 µM, first compound 0.01 µM) of the same molecule?
A: 106%

Q: What about the viability, T/C (second compound 0.0316 µM, first compound 0.0316 µM) of the same molecule?
A: 103%

Q: What about the viability, T/C (second compound 0.0316 µM, first compound 0.1 µM) of the same molecule?
A: 135%

Q: What about the viability, T/C (second compound 0.0316 µM, first compound 0.316 µM) of the same molecule?
A: 134%

Q: What about the viability, T/C (second compound 0.0316 µM, first compound 1 µM) of the same molecule?
A: 117%

Q: And the viability, T/C (second compound 0.1 µM, first compound 0.00316 µM)?
A: 89.4%

Q: What about the viability, T/C (second compound 0.1 µM, first compound 0.01 µM) of the same molecule?
A: 92%

Q: And the viability, T/C (second compound 0.1 µM, first compound 0.0316 µM)?
A: 93%

Q: What about the viability, T/C (second compound 0.1 µM, first compound 0.1 µM) of the same molecule?
A: 95.1%

Q: And the viability, T/C (second compound 0.1 µM, first compound 0.316 µM)?
A: 109%

Q: What about the viability, T/C (second compound 0.1 µM, first compound 1 µM) of the same molecule?
A: 100%

Q: And the viability, T/C (second compound 0.316 µM, first compound 0.00316 µM)?
A: 81.5%

Q: What about the viability, T/C (second compound 0.316 µM, first compound 0.01 µM) of the same molecule?
A: 81%

Q: What about the viability, T/C (second compound 0.316 µM, first compound 0.0316 µM) of the same molecule?
A: 75.2%

Q: And the viability, T/C (second compound 0.316 µM, first compound 0.1 µM)?
A: 66.5%

Q: And the viability, T/C (second compound 0.316 µM, first compound 0.316 µM)?
A: 84.5%

Q: What about the viability, T/C (second compound 0.316 µM, first compound 1 µM) of the same molecule?
A: 72.9%

Q: And the viability, T/C (second compound 1 µM, first compound 0.00316 µM)?
A: 71.8%

Q: And the viability, T/C (second compound 1 µM, first compound 0.01 µM)?
A: 77.3%

Q: And the viability, T/C (second compound 1 µM, first compound 0.0316 µM)?
A: 82.8%

Q: And the viability, T/C (second compound 1 µM, first compound 0.1 µM)?
A: 75.7%

Q: What about the viability, T/C (second compound 1 µM, first compound 0.316 µM) of the same molecule?
A: 75.4%

Q: And the viability, T/C (second compound 1 µM, first compound 1 µM)?
A: 73.2%

Q: And the viability, T/C (second compound 3.16 µM, first compound 0.00316 µM)?
A: 72.7%

Q: What about the viability, T/C (second compound 3.16 µM, first compound 0.01 µM) of the same molecule?
A: 71.7%

Q: And the viability, T/C (second compound 3.16 µM, first compound 0.0316 µM)?
A: 67.1%

Q: What about the viability, T/C (second compound 3.16 µM, first compound 0.1 µM) of the same molecule?
A: 63.1%

Q: What about the viability, T/C (second compound 3.16 µM, first compound 0.316 µM) of the same molecule?
A: 60.2%

Q: And the viability, T/C (second compound 3.16 µM, first compound 1 µM)?
A: 63.2%

Q: And the viability, T/C (second compound 10 µM, first compound 0.00316 µM)?
A: 72.1%

Q: What about the viability, T/C (second compound 10 µM, first compound 0.01 µM) of the same molecule?
A: 65.1%

Q: And the viability, T/C (second compound 10 µM, first compound 0.0316 µM)?
A: 66%

Q: What about the viability, T/C (second compound 10 µM, first compound 0.1 µM) of the same molecule?
A: 60.7%

Q: And the viability, T/C (second compound 10 µM, first compound 0.316 µM)?
A: 60.4%

Q: And the viability, T/C (second compound 10 µM, first compound 1 µM)?
A: 56.3%
